Reference: patent publication US20250319078A1, “METHOD FOR SYNERGISTIC ENHANCEMENT OF REMYELINATION VIA MODULATION OF RXR AND A HETERODIMERIC PARTNER” (THE SCRIPPS RESEARCH INSTITUTE, priority 2022, published 2025)

Columns and labels:
[1] = tested on: rat optic nerve derived OPCs; assay: cell-based OPC differentiation assay quantifying % MBP-positive OLs by immunofluorescence after 6 days of treatment; settings: for effect on % T3-induced MBP+OLs in combination with bexarotene (phenocopy of tasin-1, tamoxifen, LXR antagonist): heat maps, average n=3; for activity in enhancing OPC differentiation alone: single agent, without RXR activation
Text: Combination-based screening and evaluation of LXR modulators. Pairwise screening of bexarotene and partner compounds was done in matrices of 9-12 doses for each and transferred onto 3 separate 384-well plates. […] Heat maps were generated using Prism to highlight impact of the combinations relative to baseline controls.
We evaluated various reported inhibitors of CYP51, TM7SF2 and EBP for their ability to enhance bexarotene-induced remyelination. We quantified activity based on immunofluorescence analysis of % MBP+OLs after 6 days of compound treatment, with vehicle/DMSO, clemastine and triiodothyronine (T3) controls on each plate using rat optic nerve derived OPCs.

[2] = dose of bexarotene used in the CCMR One trial; read-out: predicted Cmax; cited from earlier work
[3] = 20 mg daily dose of tamoxifen; cited from earlier work
[4] = tested on: LXR; assay: confocal imaging and line profile analysis of LXR localization in OPCs/oligodendrocytes; type: cell-based; settings: 6 days of treatment; immunofluorescence, confocal imaging
Procedure: Confocal imaging and analysis of LXR expression. […] OPCs were then seeded at a density of 1,000 cells per well, and the plates were incubated at 37° C. with 5% CO2 for 6 d. On day 6, cells were then fixed for 20 min with 4% formaldehyde solution and stained with anti-LXRalpha/beta antibody (cat. #sc-271064, Santa Cruz Biotechnology) in 3% BSA, 0.3% Triton X-100 with overnight incubation at 4° C. The cells were washed and incubated with secondary antibody (Alexa Fluor 488 goat anti-mouse IgG, Life Technologies) and Hoechst 33342 (Invitrogen) for 1 h at room temperature. The cells were washed and plates were sealed and imaged using a Cellomics Cell Insight imaging reader (Thermo). Randomly-selected fields from 6 wells selected at random were imaged at 50× magnification using a Zeiss 780 confocal microscope. 10 cells within images from each treatment group were randomly selected for line profile analysis.
A line profile analysis of fluorescent intensities was performed by drawing an 18.5 μm line through the center of individual cells (n=10), from approximately 2-4 microns beyond the nuclear membrane on each side using the Fiji image processing platform. Fluorescence intensities over distance (μm) was graphed using Prism 9 software (GraphPad).

CC(C)=CCC[C@@H](C)[C@H]1CC=C2C3=C(CC[C@@]21C)[C@@]1(C)CC[C@H](O)C(C)(C)[C@@H]1CC3 [FF-MAS, Follicular fluid meiosis-activating sterol]
effect on % T3-induced MBP+OLs in combination with bexarotene (phenocopy of tasin-1, tamoxifen, LXR antagonist) [1]: combines with bexarotene (RXRg agonist) to phenocopy tasin-1, tamoxifen, or an LXR antagonist

Cc1cc(C)c(S(=O)(=O)N(CCc2cccc(Br)c2)Cc2ccc(-c3cccc(S(C)(=O)=O)c3)cc2)c(C)c1 [SR9243]
effect on % T3-induced MBP+OLs in combination with bexarotene (phenocopy of tasin-1, tamoxifen, LXR antagonist) [1]: phenocopies GSK2033, FFMAS, tasin-1 and tamoxifen

CC(C)=CCC[C@@H](C)[C@H]1CC[C@H]2C3=C(CC[C@]12C)[C@@]1(C)CC[C@H](O)C[C@@H]1CC3 [Zymosterol]
effect on % T3-induced MBP+OLs in combination with bexarotene (phenocopy of tasin-1, tamoxifen, LXR antagonist) [1]: phenocopies tasin-1, tamoxifen and LXR agonists

C=C(c1ccc(C(=O)O)cc1)c1cc2c(cc1C)C(C)(C)CCC2(C)C [bexarotene]
Cmax [2]: 2600 nM | cell-based OPC differentiation ECmax of bexarotene (concentration required to achieve optimal activity) ([1]; bexarotene combined with tamoxifen): ~150 nM

CC/C(=C(\c1ccccc1)c1ccc(OCCN(C)C)cc1)c1ccccc1 [tamoxifen]
steady state plasma concentration [3]: 834 nM | localization of LXR following treatment [4]: significant shift in localization of LXR | activity in enhancing OPC differentiation alone [1]: minimally active

COc1ccc(S(=O)(=O)N2CCC(N3CCC(C)CC3)CC2)cc1 [tasin-1]
localization of LXR following treatment [4]: significant shift in localization of LXR | activity in enhancing OPC differentiation alone [1]: minimally active
